From the NIST ThermoML archive (doi:10.1007/s10765-013-1553-5)

Settings: Liquid, Closed cell (Static) method

F/C=C\C(F)(F)F [(Z)-1,3,3,3-tetrafluoro-1-propene]
Settings	vapor or sublimation pressure [kPa]
238.13 K	12
243.1 K	16
248 K	21
252.9 K	27
257.81 K	34
263.02 K	44
267.91 K	55
272.83 K	68
277.94 K	85
282.78 K	102
283.15 K	103
285.15 K	111
287.15 K	120
287.62 K	123
289.15 K	129
291.15 K	139
292.62 K	148
293.15 K	149
295.15 K	160
297.15 K	172
298 K	178
299.15 K	184
301.15 K	198
303.15 K	211
303.18 K	212
305.15 K	225
307.15 K	241
308.18 K	249
309.15 K	256
311.15 K	273
313.15 K	291
313.17 K	291
315.15 K	309
317.15 K	329
318.14 K	338
319.15 K	349
321.14 K	370
323.14 K	392
323.15 K	392
325.15 K	415
327.15 K	439
328.12 K	451
329.15 K	465
331.15 K	491
333.11 K	518
333.15 K	519
335.15 K	548
337.15 K	578
338.12 K	591
339.15 K	609
341.15 K	641
343.07 K	672
343.15 K	675
345.15 K	710
347.16 K	746
348.16 K	764
349.15 K	784
351.15 K	823
353.12 K	861
353.16 K	863
358.13 K	969
363.14 K	1086
368.09 K	1212
372.61 K	1336
